From patent US20040023994A1 (priority 2002, published 2004)

Assays:
[1] = test system: A-498 cells; experiment: MTT cytotoxicity assay; format: cell-based, human; settings: Homo sapiens, A498
Description: (§1) Preliminary studies examining the in vitro cytotoxicity of cis-AVTP and trans-AVTG as compared to the parent drugs, were carried out using the 3-[4,5-dimethylthiazol-2-yl]-2,5-diphenyl tetrazolium bromide (MTT) cytotoxicity assay.

[2] = test system: ACHN cells; experiment: MTT cytotoxicity assay; format: cell-based, human; settings: Homo sapiens
Description: as §1

[3] = test system: all the cell lines included in the screen; experiment: cells
Description: cis-AVTP and trans-AVTG were tested in National Cancer Institute's (NCI) 60 cell lines derived from leukemia, melanoma, lung, kidney cancers. Most chemotherapeutic agents currently nd 6-TG, have been tested in this screen and a database he National Institutes of Health. The NCI assigned s-AVTP, and number NSC-722289 to trans-AVTG. tocol used for the cytotoxicity assessment in the NCI e from the National Institutes of Health. Briefly, tumor ma, lung, colon, brain, ovary, breast, prostate, and um containing 5% fetal bovine serum and 2 mM L-glutamine re plated in a 100 μL volume into 96 well microtiter 37° C. in humidified atmosphere supplemented with 5% ach cell line were fixed with trichloroacetic acid for f drug addition (Tz). The drugs, as 400-fold concentrated uted to twice the final maximum test concentration with entamicin. Additional four 10-fold dilutions were made us control. Aliquots (100 μl) of the drug solutions were 100 μl of medium, resulting in the required final drug the plates were incubated at 37° C. in humidified for additional 48 h. The assay was terminated by the w/v) trichloroacetic acid for adherent and suspension minutes at 4° C. The supernatant was discarded, the and air dried. A 100 μl aliquot of 0.4% (w/v) sulforhodamine B (SRB) solution in 1% acetic acid was added to each well, and the plates incubated for 10 minutes at room temperature. After staining, unbound dye was removed by washing five times with 1% acetic acid and the plates air dried. Bound stain was solubilized with 10 mM trizma base, and the absorbance read on a plate reader at a wavelength of 515 nm.
By using time zero (Tz), control growth (C), and test growth in the presence of drug at the five concentration levels (Ti), the percentage growth was calculated at each of the drug concentration levels. Percentage growth inhibition was calculated as:
[(Ti−Tz)/(C−Tz)]×100 for concentrations for which Ti>/=Tz
[(Ti−Tz)/Tz]×100 for concentrations for which Ti<Tz.
Three dose response parameters were calculated for each experimental agent. […] The TGI, the drug concentration resulting in total growth inhibition was calculated from Ti=Tz. The LC50 (the concentration of drug resulting in a 50% reduction in the measured protein at the end of the drug treatment as compared to that at the beginning) indicating a net loss of cells following treatment was calculated from [(Ti−Tz)/Tz]×100=−50. Values were calculated for each of these three parameters if the level of activity is reached; however, if the effect was not reached or was exceeded, the value for that parameter is expressed as greater or less than the maximum or minimum concentration tested.

[4] = test system: MDA-MB-435; settings: MDA-MB-435, Breast, NCI database, cited from earlier work
[5] = test system: Breast cell lines
[6] = test system: Prostate cell lines
[7] = test system: Colon cell lines
[8] = test system: Renal cell lines
[9] = test system: Melanoma cell lines
[10] = test system: NSCL cell lines
[11] = test system: CNS cell lines
[12] = test system: Leukemia cell lines; settings: Leukemia
[13] = test system: DU-145; settings: DU-145, Prostate, NCI database, cited from earlier work
[14] = test system: SN12C; settings: Renal, NCI database, cited from earlier work
[15] = test system: Breast cell lines; experiment: cells
[16] = test system: Prostate cell lines; experiment: cells
[17] = test system: Colon cell lines; experiment: cells
[18] = test system: Renal cell lines; experiment: cells
[19] = test system: Melanoma cell lines; experiment: cells
[20] = test system: NSCL cell lines; experiment: cells
[21] = test system: CNS cell lines; experiment: cells; settings: Homo sapiens
[22] = test system: Leukemia cell lines; experiment: cells
[23] = test system: Ovarian cell lines; experiment: NCI anticancer screen, by tissue type
[24] = read-out: LC50 (the source's name)

Sc1ncnc2nc[nH]c12 [6-MP, 6-mercaptopurine]
IC50 ([1]; A-498, 72 h incubation, MTT): 60.6 ± 25.5 µM
IC50 ([1]; A-498, 96 h drug incubation): 14.9 ± 6.7 µM
IC50 ([2]; 48 h drug incubation): 44.8 ± 5 µM
IC50 ([2]; 72 h incubation, MTT): 6.3 ± 1.9 µM
IC50 ([2]; 96 h drug incubation): 0.9 ± 0.3 µM
median TGI ([3]; all cell lines of the NCI screen): >100 µM
GI50 ([3]; read-out: median GI50): 3.97 µM
CC50 ([3]; read-out: median LC50): > 100 µM
GI50 [4]: 1.4 µM
TGI [4]: >100 µM
CC50 [4, 24]: > 100 µM
median TGI [5]: >100 µM
median TGI [6]: >100 µM
median TGI [7]: >100 µM
median TGI [8]: >100 µM
median TGI [9]: >100 µM
median TGI [10]: >100 µM
median TGI [11]: >100 µM
median TGI [12]: >100 µM
GI50 [13]: 1.73 µM
TGI [13]: >100 µM
CC50 [13, 24]: > 100 µM
CC50 [14, 24]: > 100 µM
GI50 [14]: 22.6 µM
TGI [14]: >100 µM
GI50 ([15]; read-out: median GI50): 9.42 µM
CC50 ([15]; read-out: median LC50): > 100 µM
GI50 ([16]; read-out: median GI50): 2.77 µM
CC50 ([16]; read-out: median LC50): > 100 µM
GI50 ([17]; read-out: median GI50): 4.53 µM
CC50 ([17]; read-out: median LC50): > 100 µM
GI50 ([18]; read-out: median GI50): 4.33 µM
CC50 ([18]; read-out: median LC50): > 100 µM
GI50 ([19]; read-out: median GI50): 5.04 µM
CC50 ([19]; read-out: median LC50): > 100 µM
GI50 ([20]; read-out: median GI50): 3.74 µM
CC50 ([20]; read-out: median LC50): > 100 µM
GI50 ([21]; read-out: median GI50): 6.64 µM
CC50 ([21]; read-out: median LC50): > 100 µM
GI50 ([22]; read-out: median GI50): 1.39 µM
CC50 ([22]; read-out: median LC50): > 100 µM
median TGI ([23]; Ovarian): >100 µM
GI50 ([23]; read-out: median GI50): 4.77 µM
CC50 ([23]; read-out: median LC50): > 100 µM
